Results from US7365096B2, “Methods for selectively inhibiting Janus tyrosine kinase 3 (Jak3)” (Board of Regents, The University of Texas System, priority 2002, dated 2008).
pIC50: −log10 of the molar value.

Tests used:
[1] = system: T-cell proliferation mediated by TCGFs; conditions: cited from earlier work
Jak3 [2] = target: T1, Jak3 (Homo sapiens, UniProt P52333); conditions: cited from earlier work
T1 sequence (P52333 1-1124): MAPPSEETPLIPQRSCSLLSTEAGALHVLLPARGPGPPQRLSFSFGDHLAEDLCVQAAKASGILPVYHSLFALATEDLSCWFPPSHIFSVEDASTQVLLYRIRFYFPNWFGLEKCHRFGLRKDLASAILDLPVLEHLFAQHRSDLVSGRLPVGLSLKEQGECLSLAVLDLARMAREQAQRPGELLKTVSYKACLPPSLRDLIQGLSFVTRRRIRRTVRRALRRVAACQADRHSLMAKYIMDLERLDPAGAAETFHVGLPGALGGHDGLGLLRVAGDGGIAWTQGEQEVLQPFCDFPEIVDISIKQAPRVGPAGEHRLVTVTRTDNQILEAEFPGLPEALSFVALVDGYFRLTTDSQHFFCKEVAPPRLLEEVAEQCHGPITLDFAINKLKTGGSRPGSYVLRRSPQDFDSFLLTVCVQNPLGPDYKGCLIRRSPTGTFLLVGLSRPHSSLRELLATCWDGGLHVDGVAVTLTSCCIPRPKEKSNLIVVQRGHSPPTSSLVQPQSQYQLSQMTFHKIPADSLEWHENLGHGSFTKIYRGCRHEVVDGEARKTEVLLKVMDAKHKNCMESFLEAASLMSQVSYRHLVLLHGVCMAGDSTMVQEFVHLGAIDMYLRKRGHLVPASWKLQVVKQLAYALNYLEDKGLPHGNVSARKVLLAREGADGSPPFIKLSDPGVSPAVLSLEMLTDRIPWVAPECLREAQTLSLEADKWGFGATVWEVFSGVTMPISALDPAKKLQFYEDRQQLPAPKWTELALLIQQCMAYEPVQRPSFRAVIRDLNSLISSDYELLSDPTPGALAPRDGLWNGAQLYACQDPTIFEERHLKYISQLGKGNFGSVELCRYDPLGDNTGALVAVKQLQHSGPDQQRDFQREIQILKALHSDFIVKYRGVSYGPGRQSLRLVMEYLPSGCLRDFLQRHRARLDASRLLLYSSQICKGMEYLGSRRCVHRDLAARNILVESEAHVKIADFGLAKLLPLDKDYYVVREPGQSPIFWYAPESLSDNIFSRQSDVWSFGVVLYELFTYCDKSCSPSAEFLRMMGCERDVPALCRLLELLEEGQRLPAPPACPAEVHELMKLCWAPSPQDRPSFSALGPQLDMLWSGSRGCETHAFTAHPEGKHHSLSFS

p56Lck = p56Lck (Homo sapiens, UniProt P06239); conditions: cited from earlier work
Zap70 = target: T2, Zap70 (Homo sapiens, UniProt P43403); conditions: cited from earlier work
T2 sequence (P43403 1-619): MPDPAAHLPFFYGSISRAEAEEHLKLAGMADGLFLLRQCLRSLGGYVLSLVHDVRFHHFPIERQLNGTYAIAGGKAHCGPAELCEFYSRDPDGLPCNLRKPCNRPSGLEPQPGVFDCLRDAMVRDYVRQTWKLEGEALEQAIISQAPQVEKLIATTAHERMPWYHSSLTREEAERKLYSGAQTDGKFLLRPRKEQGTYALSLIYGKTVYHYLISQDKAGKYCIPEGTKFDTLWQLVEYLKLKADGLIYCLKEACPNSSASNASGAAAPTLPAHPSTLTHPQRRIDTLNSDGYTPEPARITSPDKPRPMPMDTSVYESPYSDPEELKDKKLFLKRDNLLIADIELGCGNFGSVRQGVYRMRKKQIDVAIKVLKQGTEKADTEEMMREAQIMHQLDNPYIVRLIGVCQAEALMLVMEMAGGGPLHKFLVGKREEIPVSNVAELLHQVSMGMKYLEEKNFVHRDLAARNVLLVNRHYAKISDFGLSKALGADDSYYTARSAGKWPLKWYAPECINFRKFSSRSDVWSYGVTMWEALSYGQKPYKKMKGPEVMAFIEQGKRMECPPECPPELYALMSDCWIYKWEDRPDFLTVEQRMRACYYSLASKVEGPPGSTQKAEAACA

Lck = Lck (Homo sapiens, UniProt P06239); conditions: cited from earlier work
Lyn = Lyn (Homo sapiens, UniProt P07948); conditions: cited from earlier work
Btk = Btk (Homo sapiens, UniProt Q06187); conditions: cited from earlier work
Syk = Syk (Homo sapiens, UniProt P43405); conditions: cited from earlier work
Src = Src (Homo sapiens, UniProt P12931); conditions: cited from earlier work
Jak1 = Jak1 (Homo sapiens, UniProt P23458); conditions: cited from earlier work
Tyk2 = Tyk2 (Homo sapiens, UniProt P29597); conditions: cited from earlier work
Jak = conditions: cited from earlier work
[3] = system: graft infiltrating mononuclear cells (GICs); conditions: rat, in vivo; cited from earlier work
[4] = system: γc/Jak3-dependent PHA-activated human T cells; test: Proliferation of PHA-activated human T cells ([3H]-thymidine); assay type: cell-based; conditions: for proliferation of PHA-activated human T cells following stimulation with IL-2 (FIG. 7A): IL-2 stimulated
Description: Cell culture and treatment. The rat T-cell line Nb2-11c, originally developed by Dr. Peter Gout (Vancouver, Canada), was grown in RPMI-1640 with 10% fetal calf serum (Intergen, cat. no. 1020-90), 2 mM L-glutamine, 5 mM HEPES, pH 7.3, and penicillin-streptomycin (50 IU/ml and 50 μg/ml, respectively), at 37° C./5% CO2. Freshly explanted normal human T lymphocytes purified by isocentrifugation (Ficoll®; EM Science, Gibbstown, N.J.) were phytohemagglutinin (PHA)-activated for 72 hours as previously described.^23 T lymphocytes were made quiescent by washing and incubating for 24 hours in RPMI-1640 medium containing 1% fetal calf serum before exposure to cytokines. […] The Mannich base 649641P (NC1153) was generously provided by Dr. Jonathan Dimmock College of Pharmacy, University of Saskatchewan, Saskatoon, Saskatchewan, Canada. All cells were then stimulated with 1 nM recombinant human IL-2 (Hoffman-LaRoche, Basel, Switzerland), IL4 or IL7 (PeproTech), or ovine prolactin (PRL) supplied by the National Hormone and Pituitary Program, National Institute of Diabetes, Digestive, and Kidney Disease (Bethesda, Md.), at 37° C. Cell pellets were frozen at −70° C.
Proliferation assays. Quiescent human primary T-cells, YT or rat Nb2-11c T-cells (5.0×10^4/well) were plated in flat-bottom, 96-well microtiter plates in 200 μl of quiescent media in the absence or presence of 1 nM IL-2, -4, -7 (PeproTech, Rock Hill, N.J.), or PRL. Next, cells were treated for 16 hours with the Mannich base drug and then pulsed for 4 hours with [^3H]-thymidine (0.5 μCi/200 μl) and harvested onto fiberglass filters. [^3H]-thymidine incorporation was analyzed by liquid scintillation counting as previously described,^23 or using standard techniques that are well known in the art.

[5] = system: Jak3 mediated T-cell growth; conditions: cited from earlier work
Jak3 [6] = target: T1, Jak3; conditions: cited from earlier work; remark: listed apart in the source
allograft = conditions: in vivo; cited from earlier work
[7] = rat, in vivo

p56Lck, sequence (P06239 whole entry, species assumed): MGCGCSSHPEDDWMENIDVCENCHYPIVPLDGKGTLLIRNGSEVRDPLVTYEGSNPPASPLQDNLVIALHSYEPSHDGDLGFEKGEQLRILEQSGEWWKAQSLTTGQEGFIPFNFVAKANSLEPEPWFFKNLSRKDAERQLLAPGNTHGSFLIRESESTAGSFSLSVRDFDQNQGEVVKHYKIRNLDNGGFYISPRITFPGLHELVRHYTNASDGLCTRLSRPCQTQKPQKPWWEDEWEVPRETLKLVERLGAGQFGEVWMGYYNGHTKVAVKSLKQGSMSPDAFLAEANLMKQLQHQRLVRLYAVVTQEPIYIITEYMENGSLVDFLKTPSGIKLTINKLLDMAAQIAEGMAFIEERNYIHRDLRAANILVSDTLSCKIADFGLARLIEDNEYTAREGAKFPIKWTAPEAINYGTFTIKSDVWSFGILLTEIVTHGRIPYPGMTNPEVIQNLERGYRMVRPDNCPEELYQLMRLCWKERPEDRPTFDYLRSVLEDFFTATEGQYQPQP
Btk, sequence (Q06187 whole entry, species assumed): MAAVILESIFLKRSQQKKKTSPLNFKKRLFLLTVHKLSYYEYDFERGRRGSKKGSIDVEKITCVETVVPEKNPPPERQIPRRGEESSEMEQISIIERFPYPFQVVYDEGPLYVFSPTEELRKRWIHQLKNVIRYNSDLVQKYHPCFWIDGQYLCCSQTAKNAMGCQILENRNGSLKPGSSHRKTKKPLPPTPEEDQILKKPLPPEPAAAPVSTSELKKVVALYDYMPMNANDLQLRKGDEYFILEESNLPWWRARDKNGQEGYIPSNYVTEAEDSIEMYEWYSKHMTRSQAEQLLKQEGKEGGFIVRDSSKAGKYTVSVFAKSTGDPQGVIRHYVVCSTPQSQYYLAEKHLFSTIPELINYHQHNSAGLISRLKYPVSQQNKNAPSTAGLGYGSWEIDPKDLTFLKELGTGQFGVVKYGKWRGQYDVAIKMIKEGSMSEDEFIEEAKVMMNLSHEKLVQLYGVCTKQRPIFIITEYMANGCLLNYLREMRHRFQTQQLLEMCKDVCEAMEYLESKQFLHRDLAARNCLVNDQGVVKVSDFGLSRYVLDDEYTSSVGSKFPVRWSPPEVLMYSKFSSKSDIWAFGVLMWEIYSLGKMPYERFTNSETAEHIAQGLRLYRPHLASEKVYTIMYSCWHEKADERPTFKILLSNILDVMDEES
Src, sequence (P12931 whole entry, species assumed): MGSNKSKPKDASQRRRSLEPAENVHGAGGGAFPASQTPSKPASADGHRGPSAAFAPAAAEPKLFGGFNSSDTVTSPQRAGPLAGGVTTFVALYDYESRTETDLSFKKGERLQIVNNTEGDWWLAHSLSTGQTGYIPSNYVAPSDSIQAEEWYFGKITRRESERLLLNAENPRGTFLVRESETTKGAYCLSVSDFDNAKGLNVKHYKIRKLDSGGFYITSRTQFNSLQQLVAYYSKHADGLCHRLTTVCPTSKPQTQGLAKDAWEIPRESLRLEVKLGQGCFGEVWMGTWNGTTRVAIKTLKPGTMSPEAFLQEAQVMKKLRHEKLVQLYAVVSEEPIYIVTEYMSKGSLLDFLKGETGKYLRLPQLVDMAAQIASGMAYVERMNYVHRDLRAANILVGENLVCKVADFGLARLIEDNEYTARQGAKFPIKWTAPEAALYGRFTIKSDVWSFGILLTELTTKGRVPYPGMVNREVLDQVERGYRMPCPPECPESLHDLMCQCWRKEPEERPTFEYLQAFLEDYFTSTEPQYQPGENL
Lyn, sequence (P07948 whole entry, species assumed): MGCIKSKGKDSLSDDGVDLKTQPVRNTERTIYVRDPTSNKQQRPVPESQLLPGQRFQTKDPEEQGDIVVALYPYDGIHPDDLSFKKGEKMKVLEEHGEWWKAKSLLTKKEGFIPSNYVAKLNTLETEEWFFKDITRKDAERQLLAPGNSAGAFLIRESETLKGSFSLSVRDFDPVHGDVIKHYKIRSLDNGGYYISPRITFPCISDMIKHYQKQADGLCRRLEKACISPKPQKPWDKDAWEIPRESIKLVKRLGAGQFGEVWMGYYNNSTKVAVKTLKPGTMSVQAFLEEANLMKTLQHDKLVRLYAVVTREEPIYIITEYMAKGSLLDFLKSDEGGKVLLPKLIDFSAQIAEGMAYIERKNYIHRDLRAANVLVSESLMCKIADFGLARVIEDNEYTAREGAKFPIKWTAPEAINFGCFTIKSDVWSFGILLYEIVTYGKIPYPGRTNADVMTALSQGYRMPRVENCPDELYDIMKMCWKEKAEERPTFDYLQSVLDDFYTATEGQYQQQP
Lck, sequence (P06239 whole entry, species assumed): as the sequence (P06239 whole entry, species assumed) above
Jak1, sequence (P23458 whole entry, species assumed): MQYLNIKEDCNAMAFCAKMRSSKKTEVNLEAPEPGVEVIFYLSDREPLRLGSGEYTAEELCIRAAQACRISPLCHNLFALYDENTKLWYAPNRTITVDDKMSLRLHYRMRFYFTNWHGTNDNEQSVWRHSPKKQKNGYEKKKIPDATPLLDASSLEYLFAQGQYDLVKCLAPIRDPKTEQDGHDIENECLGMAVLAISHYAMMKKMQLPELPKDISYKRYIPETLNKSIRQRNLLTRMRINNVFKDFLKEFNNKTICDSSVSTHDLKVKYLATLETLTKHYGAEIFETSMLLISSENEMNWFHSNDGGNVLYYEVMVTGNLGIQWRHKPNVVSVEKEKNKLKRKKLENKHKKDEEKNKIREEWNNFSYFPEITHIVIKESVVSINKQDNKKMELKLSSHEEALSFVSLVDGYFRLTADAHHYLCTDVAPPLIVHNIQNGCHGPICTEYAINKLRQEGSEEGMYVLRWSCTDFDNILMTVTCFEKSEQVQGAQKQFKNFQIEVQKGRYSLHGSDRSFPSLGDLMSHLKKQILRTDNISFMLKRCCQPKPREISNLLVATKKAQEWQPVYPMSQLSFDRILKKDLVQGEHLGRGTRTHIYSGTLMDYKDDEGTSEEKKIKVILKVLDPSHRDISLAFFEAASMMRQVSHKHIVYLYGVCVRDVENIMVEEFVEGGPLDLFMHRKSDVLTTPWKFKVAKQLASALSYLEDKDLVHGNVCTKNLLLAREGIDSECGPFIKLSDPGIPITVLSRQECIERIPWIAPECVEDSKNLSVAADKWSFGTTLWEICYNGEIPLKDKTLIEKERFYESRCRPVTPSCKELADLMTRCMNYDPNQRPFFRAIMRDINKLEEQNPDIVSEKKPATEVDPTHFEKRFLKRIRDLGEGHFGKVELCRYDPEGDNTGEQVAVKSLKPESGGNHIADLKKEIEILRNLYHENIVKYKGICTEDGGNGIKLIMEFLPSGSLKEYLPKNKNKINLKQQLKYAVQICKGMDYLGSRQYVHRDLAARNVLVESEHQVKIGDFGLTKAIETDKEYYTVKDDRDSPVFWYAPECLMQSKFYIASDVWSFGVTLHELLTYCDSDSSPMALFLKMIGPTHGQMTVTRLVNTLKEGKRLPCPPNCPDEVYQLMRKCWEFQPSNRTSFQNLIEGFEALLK
Tyk2, sequence (P29597 whole entry, species assumed): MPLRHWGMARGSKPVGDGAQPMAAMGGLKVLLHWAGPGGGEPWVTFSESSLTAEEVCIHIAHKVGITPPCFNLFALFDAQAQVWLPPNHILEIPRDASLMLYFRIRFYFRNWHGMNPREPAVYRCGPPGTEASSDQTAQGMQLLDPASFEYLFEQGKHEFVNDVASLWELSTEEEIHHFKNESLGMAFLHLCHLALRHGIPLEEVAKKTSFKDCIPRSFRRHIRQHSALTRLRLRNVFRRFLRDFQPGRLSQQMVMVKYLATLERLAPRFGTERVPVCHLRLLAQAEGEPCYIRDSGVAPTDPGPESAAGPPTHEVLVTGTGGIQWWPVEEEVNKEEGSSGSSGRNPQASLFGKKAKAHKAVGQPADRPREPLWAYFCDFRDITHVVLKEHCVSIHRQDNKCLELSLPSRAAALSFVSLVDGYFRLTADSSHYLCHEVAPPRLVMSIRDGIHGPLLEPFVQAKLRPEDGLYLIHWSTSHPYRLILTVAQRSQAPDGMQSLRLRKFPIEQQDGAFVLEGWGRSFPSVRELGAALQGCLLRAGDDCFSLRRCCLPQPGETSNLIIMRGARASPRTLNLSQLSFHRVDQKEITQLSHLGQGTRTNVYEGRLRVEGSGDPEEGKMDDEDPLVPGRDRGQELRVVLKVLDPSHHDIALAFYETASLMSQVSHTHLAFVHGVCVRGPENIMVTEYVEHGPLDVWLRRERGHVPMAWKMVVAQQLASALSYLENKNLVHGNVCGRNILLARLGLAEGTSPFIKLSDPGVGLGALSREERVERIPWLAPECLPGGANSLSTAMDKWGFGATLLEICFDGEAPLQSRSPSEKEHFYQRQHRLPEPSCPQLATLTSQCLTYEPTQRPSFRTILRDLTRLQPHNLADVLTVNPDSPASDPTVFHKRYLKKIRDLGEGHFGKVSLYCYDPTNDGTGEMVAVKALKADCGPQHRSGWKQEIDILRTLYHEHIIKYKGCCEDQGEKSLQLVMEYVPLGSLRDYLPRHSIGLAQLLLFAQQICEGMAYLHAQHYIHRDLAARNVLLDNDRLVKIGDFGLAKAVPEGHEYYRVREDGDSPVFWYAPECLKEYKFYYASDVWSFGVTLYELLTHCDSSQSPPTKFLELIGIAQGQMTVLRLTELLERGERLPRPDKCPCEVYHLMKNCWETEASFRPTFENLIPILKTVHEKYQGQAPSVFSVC

N#C/C(=C\c1ccc(O)c(O)c1)C(=O)NCc1ccccc1 [AG-490]
T-cell proliferation mediated by TCGFs [1]: competent to inhibit
Jak3 autokinase activity (Jak3 [2]): competent to inhibit
effect on p56Lck (p56Lck): neither of those two agents affects
effect on Zap70 (Zap70): neither of those two agents affects
inhibition of Lck (Lck): does not inhibit
inhibition of Lyn (Lyn): does not inhibit
inhibition of Btk (Btk): does not inhibit
inhibition of Syk (Syk): does not inhibit
inhibition of Src (Src): does not inhibit
inhibition of Jak1 (Jak1): does not inhibit
inhibition of Tyk2 (Tyk2): does not inhibit
effects on closest related family member Jak (Jak): exert similar effects
IL2Rα expression (ribonuclease protection assays) [3]: failed to affect
Stat5a/b DNA binding of ex vivo IL-2 stimulated GICs [3]: reduced
graft infiltration of mononuclear cells (GICs) [3]: reduced

CCCCCCCCCCCC1C=C/C(=C/c2[nH]c(-c3ccc[nH]3)cc2OCc2ccccc2)N1.Cl (stereo not drawn) [PNU156804]
pIC50 ([4]; Homo sapiens, IL-2 driven T-cell growth, 16 hours drug, [3H]-thymidine, read-out: IC50, disrupting cell growth): ~5.00
T-cell proliferation mediated by TCGFs [1]: competent to inhibit
Jak3 autokinase activity (Jak3 [2]): competent to inhibit
effect on p56Lck (p56Lck): neither of those two agents affects
effect on Zap70 (Zap70): neither of those two agents affects
inhibition of Jak3 mediated T-cell growth by IL-2 compared to prolactin (Jak2) [5]: greater specificity
Jak3 autophosphorylation as compared with Jak2 (Jak3 [6]): preferentially inhibited
allograft survival (allograft): prolongs allograft survival
interaction with CsA (allograft): synergistically
interaction with RAPA (allograft): additively

CO[C@H]1C[C@@H]2CC[C@@H](C)[C@@](O)(O2)C(=O)C(=O)N2CCCC[C@H]2C(=O)O[C@H]([C@H](C)C[C@@H]2CC[C@@H](O)[C@H](OC)C2)CC(=O)[C@H](C)/C=C(\C)[C@@H](O)[C@@H](OC)C(=O)[C@H](C)C[C@H](C)/C=C/C=C/C=C/1C [RAPA, rapamycin, reference compound]
peripheral blood counts (PBC) [7]: reduced PBC compared to untreated rats, in contrast to SRL

COc1cc(C2C(C(=O)Nc3ccc(Cl)c(Cl)c3)=C(C)NC(C)=C2C(=O)Nc2ccc(Cl)c(Cl)c2)ccc1O [compound 637712]
proliferation of PHA-activated human T cells following stimulation with IL-2 (FIG. 7A) [4]: blocked

N#CCCN(CCC#N)c1ccc(C(Sc2ccccc2)C(NC(=O)c2cc([N+](=O)[O-])ccc2Cl)C(=O)Sc2ccccc2)cc1 (stereo not drawn) [compound 640674]
proliferation of PHA-activated human T cells following stimulation with IL-2 (FIG. 7A) [4]: blocked

CC1(C)c2ccccc2N2O[C@@H]3C(=O)N(c4ccccc4)C(=O)[C@@H]3C21c1ccccc1 (stereo partly drawn) [compound 643423]
proliferation of PHA-activated human T cells following stimulation with IL-2 (FIG. 7A) [4]: blocked

CCCCCCCC(=O)OCC(C[As](=O)(O)O)OC(=O)CCCCCCC (stereo not drawn) [compound 655906]
proliferation of PHA-activated human T cells following stimulation with IL-2 (FIG. 7A) [4]: blocked

CC(=O)Oc1ccc2cc(-c3ccccc3OC(C)=O)c(=O)oc2c1 [compound 673137]
proliferation of PHA-activated human T cells following stimulation with IL-2 (FIG. 7A) [4]: blocked

O=C1c2ccccc2C(=O)[C@@]23O[C@@]12C1(Oc2cccc4cccc(c24)O1)[C@@H]1O[C@@H]1[C@@H]3O [compound 683332]
proliferation of PHA-activated human T cells following stimulation with IL-2 (FIG. 7A) [4]: blocked

Cc1oc2c(c1C)S(=O)(=O)C(C#N)C(c1ccccc1)N2 (stereo not drawn) [compound 693812]
proliferation of PHA-activated human T cells following stimulation with IL-2 (FIG. 7A) [4]: blocked
